Reference: patent US10935560B2, “Method and kit for identifying lupus anticoagulant (LA) associated with antiphospholipid syndrome” (Instrumentation Laboratory Company, priority 2016, dated 2021)
Entries after “also recorded” stand apart in the source; their conditions may differ.

Columns and labels:
Type in all cases: biochemical, human
[1] = system: LA positive plasma sample; test: dRVVT Screen / dRVVT Confirm test, 1:1 mixing study; conditions: for NR of dRVVT test: 1000 ng/ml PPACK
Source text: (§1) The results of the LA screening assays are expressed by Screen Ratio (Rs), an assay done in the presence of low levels of phospholipid, Confirm Ratio (Re), an assay done in the presence of elevated levels of phospholipid, Screen-to-Confirm Ratio (R) and Normalized Screen-to-Confirm Ratio (NR) defined as follows: […]
(§2) For each of the assays above, irrespective of the clotting inhibitor used in the assay, the measured screen assay clotting time of a patient sample is compared to the measured screen assay clotting time of normal platelet poor plasma and expressed as a ratio (Rs). Additionally, the measured confirm assay clotting time of a patient sample is compared to the measured confirm assay clotting time of normal platelet poor plasma and expressed as a ratio (Rc). A normalized ratio (NR) is expressed as Rs/Rc. The NR is compared to a cutoff ratio established from normal, healthy subjects.

[2] = system: normal pooled plasma (NPP); test: as above
Source text: as §1, §2

[3] = system: LA negative sample (platelet poor NPP); test: APTT-based silica clotting time (SCT Screen / SCT Confirm) assay, 1:1 mixing study; conditions: for Screen-to-Confirm Ratio (R) of SCT Assay: LA negative sample
Source text: as §1, §2
(§3) D-phenylalanyl-1-prolyl-1-arginine-chloromethyl ketone (PPACK) is a synthetic peptide that irreversibly binds to the catalytic site of thrombin. Referring to FIGS. 1-3, the use of PPACK in an SCT assay is shown where a plasma test sample was mixed with a LA negative plasma sample pool in a 1:1 ratio during testing (i.e., in a mixing study setting). By a mixing study, clotting factors that are present in normal plasma are added to the test plasma suspected of having a coagulation disorder.
(§4) Referring to FIGS. 1A-B, while the effect of PPACK on SCT Screen and SCT Confirm is similar for the LA negative sample, PPACK has much greater impact on SCT Screen than on SCT Confirm for the LA positive samples.

[4] = system: LA positive plasma sample; test: as above
Source text: as §1, §2, §3, §4
The effect of PPACK on LA detection is further analyzed on the LA positive sample diluted with LA negative sample in different ratios (1:1 and 1:3 of LA positive: LA Negative). When the LA positive sample was diluted 4-fold with LA negative sample, the LA was not detectable in the absence of PPACK (NR: […]) thereby underscoring the increased sensitivity of the method disclosed herein.

[5] = system: patient plasma samples (LA negative, factor deficient, LA positive); test: HemosIL dRVVT Screen and dRVVT Confirm in the presence of PPACK, 1:1 mixing study setting, patient samples; conditions: 350 nM PPACK
Source text: as §1
as §2, with “subjects. […]” for “subjects.”
The study reported the normalized ratio correctly for all plasma samples and addressed issues with factor deficiency (Table 2).

[6] = sample 0114 LA NEG, LA Negative Pool
[7] = sample 0114 S03, FVIIIDef (con)
[8] = sample 0114 S04, FVIIIDef (con)
[9] = sample 0114 S05, FVIII (con)/vWF Def
[10] = sample 0114 S06, FVIII (con)/vWF Def

## CC1CNc2c(cccc2S(=O)(=O)N[C@@H](CCCNC(=N)N)C(=O)N2CC[C@@H](C)C[C@@H]2C(=O)O)C1 (some centres unmarked) [argatroban]
[1]; LA positive sample, 500 ng/ml argatroban (from 1.34)
  Normalized ratio of dRVVT Assay: 1.57
[1]; LA positive sample, argatroban
  Change of Screen-to-Confirm Ratio of dRVVT Assay: didn't change
[2]; 500 ng/ml argatroban (1.06 in the absence of argatroban)
  Screen-to-Confirm Ratio of dRVVT Assay: 0.9

## D-phenylalanyl-1-prolyl-1-arginine-chloromethyl ketone [PPACK]
[3]; 100 nM PPACK (0.81 at 0 nM)
  Screen-to-Confirm Ratio (R) of SCT Assay: 0.83
[3]; 1000 nM PPACK (0.81 at 0 nM)
  Screen-to-Confirm Ratio (R) of SCT Assay: 0.78
[3]; NPP / LA negative sample, increasing PPACK concentrations
  Change of Screen-to-Confirm Ratio of SCT Assay: remained the same; also recorded: decreased slightly
[4]; LA positive sample 1:1 diluted with NPP, 1000 ng/ml PPACK, automated mixing study 1:1
  Normalized Ratio (NR) of SCT Assay: 1.82
[4]; LA positive sample 1:3 diluted with NPP, 1000 ng/ml PPACK, automated mixing study 1:1
  Normalized Ratio (NR) of SCT Assay: 1.46
[4]; LA positive sample diluted 4-fold with LA negative sample, 1000 nM PPACK (1.08 in the absence of PPACK)
  Normalized Ratio (NR) of SCT Assay: 1.46
[4]; LA positive sample undiluted, 1000 ng/ml PPACK, automated mixing study 1:1 with NPP/PPACK
  Normalized Ratio (NR) of SCT Assay: 2.34
[4]; LA positive sample, 1000 nM PPACK (1.09 in the absence of PPACK)
  Screen-to-Confirm Ratio (R) of SCT Assay: 1.82
[5]; [6]
  Confirm: 50.4 s
  Confirm (Rc): 1.00
  S/C (NR): 1.00
  S/C (R): 0.98
  Screen: 49.6 s
  Screen (Rs): 1.00
[5]; sample 0114 S01, FVDef (con)
  Confirm: 62.8 s
  Confirm (Rc): 1.25
  S/C (NR): 1.02
  S/C (R): 1.01
  Screen: 63.3 s
  Screen (Rs): 1.28
[5]; sample 0114 S02, FVDef (con)
  Confirm: 54.2 s
  Confirm (Rc): 1.08
  S/C (NR): 0.88
  S/C (R): 0.87
  Screen: 46.9 s
  Screen (Rs): 0.95
[5]; [7]
  Confirm: 47.9 s
  Confirm (Rc): 0.95
  S/C (NR): 1.05
  S/C (R): 1.04
  Screen: 49.7 s
  Screen (Rs): 1.00
[5]; [8]
  Confirm: 48.5 s
  Confirm (Rc): 0.96
  S/C (NR): 1.03
  S/C (R): 1.02
  Screen: 49.3 s
  Screen (Rs): 0.99
[5]; [9]
  Confirm: 49.2 s
  Confirm (Rc): 0.98
  S/C (NR): 1.00
  S/C (R): 0.98
  Screen: 48.4 s
  Screen (Rs): 0.98
[5]; [10]
  Confirm: 48.9 s
  Confirm (Rc): 0.97
  S/C (NR): 1.01
  S/C (R): 0.99
  Screen: 48.6 s
  Screen (Rs): 0.98
[5]; sample 0114 S07, FIXDef (con)
  Confirm: 50.5 s
  Confirm (Rc): 1.00
  S/C (NR): 0.97
  S/C (R): 0.95
  Screen: 41.1 s
  Screen (Rs): 0.97
[5]; sample 0114 S08, FIXDef (con)
  Confirm: 48.9 s
  Confirm (Rc): 0.97
  S/C (NR): 1.01
  S/C (R): 0.99
  Screen: 48.5 s
  Screen (Rs): 0.98
[5]; sample 0114 S09, FXDef (con)
  Confirm: 59.2 s
  Confirm (Rc): 1.17
  S/C (NR): 1.04
  S/C (R): 1.03
  Screen: 60.7 s
  Screen (Rs): 1.22
[5]; sample 0114 S10, FXDef (con)
  Confirm: 51.4 s
  Confirm (Rc): 1.02
  S/C (NR): 1.01
  S/C (R): 0.99
  Screen: 51.1 s
  Screen (Rs): 1.03
[5]; sample 0114 S11, FXIDef (con)
  Confirm: 49.7 s
  Confirm (Rc): 0.99
  S/C (NR): 1.00
  S/C (R): 0.98
  Screen: 48.8 s
  Screen (Rs): 0.98
[5]; sample 0114 S12, FXIDef (con)
  Confirm: 47.7 s
  Confirm (Rc): 0.95
  S/C (NR): 1.00
  S/C (R): 0.98
  Screen: 46.8 s
  Screen (Rs): 0.94
[5]; sample 0114 S13, FXIIDef (con)
  Confirm: 45.3 s
  Confirm (Rc): 0.90
  S/C (NR): 1.01
  S/C (R): 0.99
  Screen: 44.9 s
  Screen (Rs): 0.91
[5]; sample 0114 S14, FXIIDef (acq)
  Confirm: 53.4 s
  Confirm (Rc): 1.06
  S/C (NR): 0.94
  S/C (R): 0.93
  Screen: 49.4 s
  Screen (Rs): 1.00
[5]; sample 0114 S15, LA Postive
  Confirm: 49.7 s
  Confirm (Rc): 0.99
  S/C (NR): 2.49
  S/C (R): 2.45
  Screen: 121.8 s
  Screen (Rs): 2.46
[5]; sample 0114 S16, LA Postive
  Confirm: 51.7 s
  Confirm (Rc): 1.03
  S/C (NR): 2.70
  S/C (R): 2.66
  Screen: 137.4 s
  Screen (Rs): 2.77
[5]; sample 0114 S17, LA Postive
  Confirm: 49.8 s
  Confirm (Rc): 0.99
  S/C (NR): 2.19
  S/C (R): 2.15
  Screen: 107.3 s
  Screen (Rs): 2.16
[1]; LA positive sample 1:1 diluted with NPP, automated mixing study 1:1
  NR of dRVVT test: 1.42
[1]; LA positive sample 1:3 diluted with NPP, automated mixing study 1:1
  NR of dRVVT test: 1.19
[1]; LA positive sample undiluted, automated mixing study 1:1 with NPP/PPACK
  NR of dRVVT test: 1.76
[1]; LA positive sample, increasing PPACK concentrations (from 1.42)
  Screen-to-Confirm Ratio of dRVVT test: 1.58
[2]; increasing PPACK concentrations (from 1.02)
  Screen-to-Confirm Ratio of dRVVT test: 0.91

## hirudin
[1]; LA positive sample, 200 ng/ml hirudin alone
  Normalized ratio of dRVVT Assay: 1.72
[1]; LA positive sample, 1000 ng/ml hirudin (1.39 without thrombin inhibitor)
  Normalized ratio of dRVVT Assay: 1.81
[1]; LA positive sample, 1000 ng/ml hirudin (1.41 in the absence of hirudin)
  Screen-to-Confirm Ratio of dRVVT Assay: 2.14
[2]; 1000 ng/ml hirudin (1.02 in the absence of hirudin)
  Screen-to-Confirm Ratio of dRVVT Assay: 1.18
